Results from the supplement of paper PMC10307832.

How the values were obtained:
Assay in all cases: relative viability (nuclei count vs DMSO), 5 days (fraction); higher = more cells survive
[1] = compound: CC1=C(C(=O)N2C=CSC2=N1)CCN3CCC(=C(C4=CC=CC=C4)C5=CC=C(C=C5)F)CC3 + CC(=O)Nc1cccc(-n2c(=O)n(C3CC3)c(=O)c3c(Nc4ccc(I)cc4F)n(C)c(=O)c(C)c32)c1 [Trametinib] (partner 0.02 µM)
Procedure, shortened: (§1)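 Lung cancer cell lines in 1536-well plates were dosed by pin tool the day after seeding, either with one drug alone or with a fixed anchor-drug dose plus five library-drug doses (not always all listed) in √10 steps. After 5 days, cells were fixed and their nuclei stained in one step (final 0.05% Triton X-100, 1% formaldehyde, 1 ug/ml Hoechst), then counted on 4× images. Relative viability is the nuclei count in treated wells divided by that in vehicle wells. Values are medians of duplicate plates.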

[2] = compound: CC1=C(C(=O)N2C=CSC2=N1)CCN3CCC(=C(C4=CC=CC=C4)C5=CC=C(C=C5)F)CC3 + O=C(c1cc(Cc2n[nH]c(=O)c3ccccc23)ccc1F)N1CCN(C(=O)C2CC2)CC1 [Olaparib] (partner 8 µM)
Procedure, shortened: as §1

[3] = compound: CC1=C(C(=O)N2C=CSC2=N1)CCN3CCC(=C(C4=CC=CC=C4)C5=CC=C(C=C5)F)CC3 + CS(=O)(=O)CCNCc1ccc(-c2ccc3ncnc(Nc4ccc(OCc5cccc(F)c5)c(Cl)c4)c3c2)o1 [Lapatinib] (partner 2 µM)
Procedure, shortened: as §1

[4] = compound: CC1=C(C(=O)N2C=CSC2=N1)CCN3CCC(=C(C4=CC=CC=C4)C5=CC=C(C=C5)F)CC3 + N=C(N)NC(=N)NCCc1ccccc1 [Phenformin] (partner 250 µM)
Procedure, shortened: as §1

Cell Line	relative viability ([1]; first compound 0.08 µM)	relative viability ([1]; first compound 0.253 µM)	relative viability ([1]; first compound 0.8 µM)	relative viability ([1]; first compound 2.53 µM)	relative viability ([1]; first compound 8 µM)	relative viability ([2]; first compound 0.08 µM)	relative viability ([2]; first compound 0.253 µM)	relative viability ([2]; first compound 0.8 µM)	relative viability ([2]; first compound 2.53 µM)	relative viability ([2]; first compound 8 µM)	relative viability ([3]; first compound 0.08 µM)	relative viability ([3]; first compound 0.253 µM)	relative viability ([3]; first compound 0.8 µM)	relative viability ([3]; first compound 2.53 µM)	relative viability ([3]; first compound 8 µM)	relative viability ([4]; first compound 0.08 µM)	relative viability ([4]; first compound 0.253 µM)	relative viability ([4]; first compound 0.8 µM)	relative viability ([4]; first compound 2.53 µM)	relative viability ([4]; first compound 8 µM)
NCI-H1648	0.437	0.378	0.427	0.465	0.417	1.14	0.981	1.28	0.787	0.359	–	–	–	–	–	–	–	–	–	–
NCI-H3122	0.214	0.247	0.229	0.235	0.229	0.458	0.627	0.595	0.628	0.371	1.01	1.14	1.03	1.2	0.964	0.38	0.376	0.386	0.396	0.394
HCC-827	0.483	0.503	0.501	0.62	0.53	0.655	0.626	0.718	0.637	0.667	0.198	0.189	0.201	0.196	0.188	0.4	0.413	0.444	0.398	0.407
EMC-BAC-2	1	–	0.931	0.926	0.858	0.46	0.468	0.468	0.522	0.46	0.744	0.924	0.89	0.877	0.773	0.536	0.495	0.497	0.526	0.414
NCI-H522	0.758	0.74	0.7	0.758	0.778	0.622	0.732	0.647	0.664	0.513	–	–	–	–	–	0.769	0.627	0.677	0.607	0.566
NCI-H2009	0.36	0.265	0.279	0.287	0.284	0.716	0.706	0.654	0.721	0.581	1.01	0.903	0.785	0.946	0.786	0.541	0.492	0.493	0.49	0.362
SK-LU-1	0.526	0.424	0.479	0.645	0.402	0.442	0.45	0.459	0.429	0.402	0.675	0.918	1.05	1.07	0.62	0.672	0.475	0.585	0.576	0.42
